Source: patent US20260232661A1, “Compositions and Uses Thereof” (Purposeful IKE, priority 2020, published 2026)
“And” between values parts separate entries of the source, which are not always exact repeats. Equal values may be shown once.

Experiments:
Format in all cases: in vivo
[1] = test system: Fmr1 KO mice; test: Open field test (hyperactivity); details: for Below threshold? WT-V vs. treated KO (Open Field) / Significant? KO-V vs. treated KO (Open Field): Dunnett's test, alpha 0.05; for Below threshold? WT-V vs. treated KO (Open Field): doses as E1; for Significant? KO-V vs. treated KO (Open Field): doses as E26
Procedure: (§1) Fmr1 KO mice backcrossed to the FVB strain and WT littermates were used during experiments. TransnetXY Automated Genotyping (www.transnetyx.com/). TRANSNETYX, INC., 8110 Cordova Rd. Suite 119, Cordova, TN 38016, USA was used for genotyping. The animals were pretreated for 14 days. The active ingredients of Sumatriptan and Ergoloid were in a water carrier, whereas oxitriptan was in a methanol carrier.
(§2) The mice were housed in plastic cages (35×30×12 cm), 5 in each. The room temperature (21±2° C.), relative humidity (55±5%), a 12-h light-dark cycle (lights on 7 a.m.-7 p.m.) and air exchange (16 times per h) were automatically controlled. The animals had free access to commercial food pellets and water. Testing was conducted during the light phase. Ten mice per treatment group were used for the AGS experiments. Experiments were conducted in line with the requirements of the UK Animals (Scientific Procedures) Act, 1986.
(§3) All experiments were conducted with the experimenter blind to genotype and drug treatment. Separate investigators prepared and coded dosing solutions, allocated the mice to the study treatment groups, dosed the animals, and collected the Audiogenic Seizure data.
(§4) Behavior testing was conducted at 2 weeks. The behavioral tests were as follows: 1. Hyperactivity: Open field; 2. Stereotypy: Self-grooming; 3. Sociability: Three chamber partition test; 4. Memory and Learning: Novel Object Recognition; 5. Anxiety: hyponeophagia; and 6. Test of daily living: marble burying
For hyperactivity, the open field test (OFT) is a common measure of exploratory behavior and general activity in both mice and rats, where both the quality and quantity of the activity can be measured. Principally, the open field (OF) is an enclosure, generally square, rectangular, or circular in shape with surrounding walls that prevent escape. The OFT is also commonly used as a mechanism to assess the sedative, toxic, or stimulant effects of compounds (Gould 2009).
(§5) The treatment of the mice with OX (Oxitriptan), SU (Sumatriptan), ER (Ergoloid mesylates, also referred to as ergoloid herein) were according to the matrix shown below in Table 1.
(§6) The experimental procedures described above for Example 1 were used in the following tests, as well as the addition of two further behaviour tests as described below. An SSRI (selective serotonin re-uptake inhibitor) was co-dosed with the ergoloid mesylates and oxitriptan to assess the effect of the ergoloid mesylates and oxitriptan treatment on a subject already receiving SSRI treatment.
(§7) The treatment of the mice with OX (Oxitriptan), ER (Ergoloid mesylates) and FL (fluvoxamine) were according to the matrix shown below in Table 21. The triple combination involved dosing of 2 mg/kg ergoloid mesylates, 40 mg/kg oxitriptan and 40 mg/kg of fluvoxamine (the SSRI).

[2] = test system: Fmr1 KO mice; test: Self-grooming (stereotypy); details: Dunnett's test, alpha 0.05; doses as E31
Procedure: as §1, §2, §3
Behavior testing was conducted at 2 weeks. The behavioral tests were as follows: 1. Hyperactivity: Open field; 2. Stereotypy: Self-grooming; 3. […]
For stereotypy, self-grooming was assessed. […]

[3] = test system: Fmr1 KO mice; test: Three chamber partition test (sociability); design: Mean Diff., N_WT-V vs. treated KO (Sociability) / Mean 2, treated KO group (Sociability) / Mean Diff., F_KO-V vs. F_KO treated (Sociability) / Mean Diff., F_KO-V vs. N_KO treated (Sociability) / Mean 2, F_KO treated group (Sociability) / Mean 2, N KO treated group (Sociability) / Mean 2, N_KO treated group (Sociability) / Data table Sociability, F_KO-Sumatriptan / Data table Sociability, N_KO-Sumatriptan / Data table Sociability, F_KO-Oxitriptan: unit not given here; details: for Significant? F_KO-V vs. F_KO treated (Sociability) / Significant? F_KO-V vs. N_KO treated (Sociability) / Significant? N_WT-V vs. treated KO (Sociability) / Summary, N_WT-V vs. treated KO (Sociability): Dunnett's test; for Significant? F_KO-V vs. F_KO treated (Sociability) / Significant? F_KO-V vs. N_KO treated (Sociability) / Significant? N_WT-V vs. treated KO (Sociability): alpha 0.05; for Significant? F_KO-V vs. N_KO treated (Sociability) / Mean Diff., F_KO-V vs. N_KO treated (Sociability) / Mean Diff., N_WT-V vs. treated KO (Sociability): N_ groups; for Significant? N_WT-V vs. treated KO (Sociability) / Summary, N_WT-V vs. treated KO (Sociability) / Mean 2, treated KO group (Sociability): groups and doses as E21; for Mean Diff., F_KO-V vs. N_KO treated (Sociability): mg/kg: Sumatriptan 20, Oxitriptan 40, Ergoloid 4, Ergoloid 2+Oxitriptan 40; for Mean Diff., N_WT-V vs. treated KO (Sociability): mg/kg: Sumatriptan 20, Oxitriptan 40, Ergoloid 4, F_KO Ergoloid 2+Sumatriptan 10, N_KO Ergoloid 2+Oxitriptan 40; for Mean 2, treated KO group (Sociability): comparison against N_WT-V
Procedure: as §1, §2, §3, §4
For sociability a three chamber partition test was utilized. The three-chamber paradigm test known as Crawley's sociability and preference for social novelty protocol has previously been successfully employed to study social affiliation and social memory in several inbred and mutant mouse lines. The main principle of the test was based on the free choice by a subject mouse to spend time in any of three box's compartments during two experimental sessions, including indirect contact with one or two mice with which it was unfamiliar (Kaidanovich-Beilin 2011).
(§8) The treatment of the mice with OX (Oxitriptan), SU (Sumatriptan), ER (Ergoloid mesylates, also referred to as ergoloid herein) were according to the matrix shown below in Table 1. […]

[4] = test system: Fmr1 KO mice; test: Novel Object Recognition (memory and learning); design: Mean Diff., N_WT-V vs. treated KO (NOR) / Mean 2, treated KO group (NOR) / Mean Diff., F_KO-V vs. F_KO treated (NOR) / Mean Diff., F_KO-V vs. N_KO treated (NOR) / Mean 2, F_KO treated group (NOR) / Mean 2, N_KO treated group (NOR): unit not given here; details: for Significant? F_KO-V vs. F_KO treated (NOR) / Significant? F_KO-V vs. N_KO treated (NOR) / Significant? N_WT-V vs. treated KO (NOR): alpha 0.05; for Significant? F_KO-V vs. F_KO treated (NOR) / Summary, F_KO-V vs. F_KO treated (NOR) / Mean 2, F_KO treated group (NOR): doses as E46
Procedure: as §1, §2, §3, §4
For memory and learning, a novel object recognition (NOR) task was used to evaluate the rodents' ability to recognize a novel object in the environment. […] The task procedure consists of three phases: habituation, familiarization, and test phase (Antunes 2012).
as §8

[5] = test system: Fmr1 KO mice; test: Hyponeophagia test (anxiety); details: for Significant? WT-V vs. treated KO (Hyponeophagia) / Significant? KO-V vs. treated KO (Hyponeophagia): alpha 0.05; for Significant? KO-V vs. treated KO (Hyponeophagia): doses as E36; for Mean Diff., WT-V vs. treated KO (Hyponeophagia): KO mice, mg/kg: Sumatriptan 20, Oxitriptan 40, Ergoloid 4, Ergoloid 2+Sumatriptan 10, Ergoloid 2+Oxitriptan 40
Procedure: as §1, §2, §3, §4
For anxiety a hyponeophagia test was conducted. Mice and rats cannot vomit, due to the tightness of the cardiac sphincter of the stomach, so to overcome the problem of potential food toxicity they have evolved a strategy of first ingesting only very small amounts of novel substances. The amounts ingested then gradually increase until the animal has determined whether the substance is safe and nutritious. So the old rat-catchers would first put a palatable substance such as oatmeal, which was to be the vehicle for the toxin, in the infested area (Deacon 2011).
as §5, §6, §7

[6] = test system: Fmr1 KO mice; test: Test of daily living (nesting; marble burying); details: for Significant? WT-V vs. treated KO (Test of daily living) / Significant? KO-V vs. treated KO (Test of daily living) / Summary, WT-V vs. treated KO (Test of daily living): Dunnett's test; for Significant? WT-V vs. treated KO (Test of daily living) / Significant? KO-V vs. treated KO (Test of daily living): alpha 0.05; for Mean Diff., WT-V vs. treated KO (Test of daily living): mg/kg: Sumatriptan 20, Oxitriptan 40, Ergoloid 4, Ergoloid 2+Sumatriptan 10, Ergoloid 2+Oxitriptan 40
Procedure: as §1, §2, §3, §4
For test of daily living, nesting was assessed as nest building is an innate behavior in rodents, even when raised in laboratory settings. Synthetic and/or natural materials (such as twine, tissue, cotton, paper, and hay) are provided as a gauge of their overall well-being and as an ancillary assessment to predict the possible decline in cognition. Typically, changes in nesting behaviors, such as failure to create a nest, indicate a change in health or welfare. In addition, nesting behavior is sensitive to many environmental and physiological challenges, as well as many genetic mutations underlying pathological disease states (Gaskill 2013).
as §5, §6, §7

[7] = comparison against F_KO-V, doses as E61
[8] = Dunnett's test, N_ groups, doses as E51
[9] = Dunnett's test, groups and doses as E16
[10] = comparison against KO-V, doses as E41
[11] = comparison against WT-V, doses as E11
[12] = F_ groups, mg/kg: Sumatriptan 20, Oxitriptan 40, Ergoloid 4, Ergoloid 2+Oxitriptan 40 (Column M)
[13] = F_, KO mice, Sumatriptan 20 mg/kg, individual animals

SMILES | Below threshold? WT-V vs. treated KO (Open Field) [1] | Significant? KO-V vs. treated KO (Open Field) [1] | Significant? KO-V vs. treated KO (Stereotypy) [2] | Significant? F_KO-V vs. F_KO treated (Sociability) ([3]; F_ groups, doses as E56) | Significant? F_KO-V vs. N_KO treated (Sociability) ([3]; doses as E61) | Significant? N_WT-V vs. treated KO (Sociability) [3] | Summary, N_WT-V vs. treated KO (Sociability) [3] | Mean Diff., F_KO-V vs. N_KO treated (Sociability) [3] | Mean Diff., N_WT-V vs. treated KO (Sociability) [3] | Mean 2, treated KO group (Sociability) [3] | Significant? F_KO-V vs. F_KO treated (NOR) ([4]; Dunnett's test, F_ groups) | Significant? F_KO-V vs. N_KO treated (NOR) [4, 8] | Significant? N_WT-V vs. treated KO (NOR) [4, 9] | Summary, F_KO-V vs. F_KO treated (NOR) ([4]; Dunnett's test, F_ groups) | Mean 2, F_KO treated group (NOR) ([4]; comparison against F_KO-V) | Significant? WT-V vs. treated KO (Hyponeophagia) ([5]; Dunnett's test, doses as E6) | Significant? KO-V vs. treated KO (Hyponeophagia) ([5]; Dunnett's test) | Mean Diff., WT-V vs. treated KO (Hyponeophagia) [5] | Significant? WT-V vs. treated KO (Test of daily living) ([6]; doses as E11) | Significant? KO-V vs. treated KO (Test of daily living) ([6]; doses as E41) | also measured
N[C@@H](Cc1c[nH]c2ccc(O)cc12)C(=O)O [Oxitriptan] | Yes | Yes | Yes | Yes | Yes | No | ns | −17.20 | 0.3000 | 98.80 | No | Yes | Yes | ns | 5.636 | No | Yes | −0.7000 | No | Yes | Mean Diff., WT-V vs. treated KO (Open Field) ([1]; KO mice, mg/kg: Sumatriptan 20, 5-HTP 80, EM 4, Ergoloid 2+Sumatriptan 10, Ergoloid 2+Oxitriptan 40): −512.4; Data table Sociability, F_KO-Oxitriptan ([3]; F_, KO mice, Oxitriptan 40 mg/kg, individual animals): 51; Mean 2, N_KO treated group (Sociability) [3, 7]: 95.80; Summary, WT-V vs. treated KO (Hyponeophagia) ([5]; Dunnett's test, doses as E6): ns; Summary, WT-V vs. treated KO (Test of daily living) ([6]; doses as E11): ns; Mean Diff., KO-V vs. treated KO (Test of daily living) ([6]; KO mice, mg/kg: Sumatriptan 20, Oxitriptan 40, Ergoloid 4, Ergoloid 2+Oxitriptan 40): −3.700; Mean Diff., WT-V vs. treated KO (Test of daily living) ([6]; KO mice): −0.1000; Mean 2, treated KO group (Test of daily living) [6, 10]: 4.900; Mean 2, treated KO group (Test of daily living) [6, 11]: 4.900
CNS(=O)(=O)Cc1ccc2[nH]cc(CCN(C)C)c2c1 [Sumatriptan] | Yes | Yes | Yes | Yes | Yes | No | ns | −16.80 | 0.9000 | 98.20 | No | No | Yes | ns | 5.800 | Yes | Yes | −9.200 | No | Yes | Mean Diff., KO-V vs. treated KO (Open Field) ([1]; KO mice, mg/kg: Sumatriptan 20, Oxitriptan 80, Ergoloid 4, Ergoloid 2+Oxitriptan 40): 846.8; Mean Diff., F_KO-V vs. F_KO treated (Sociability) [3, 12]: 19.40; Data table Sociability, F_KO-Sumatriptan [3, 13]: 61 (2×) and 64 and 65 (2×) and 60 (3×) and 63 (2×); Data table Sociability, N_KO-Sumatriptan ([3]; KO mice, Sumatriptan 20 mg/kg, individual animals): 99 and 97 (2×) and 103 and 98 and 90 and 102 and 100 and 95 and 101; Mean 2, F_KO treated group (Sociability) ([3]; comparison against F_KO-V, doses as E56): 62.20; Mean 2, N KO treated group (Sociability) [3, 7]: 98.2; Summary, F_KO-V vs. N_KO treated (NOR) [4, 8]: ns; Mean Diff., F_KO-V vs. F_KO treated (NOR) [4, 12]: −0.2000; Data table Novel Object Recognition, F_KO-Sumatriptan [4, 13]: 6; Mean Diff., F_KO-V vs. N_KO treated (NOR) ([4]; N_ groups, mg/kg: Sumatriptan 20, Oxitriptan 40, Ergoloid 4, Ergoloid 2+Oxitriptan 40): −0.7000; Mean Diff., N_WT-V vs. treated KO (NOR) ([4]; N_ groups, mg/kg: Sumatriptan 20, Oxitriptan 40, Ergoloid 4, F_KO Ergoloid 2+Sumatriptan 10, N_KO Ergoloid 2+Oxitriptan 40): 6.600; Mean 2, N_KO treated group (NOR) ([4]; comparison against F_KO-V, doses as E51): 7.300; Mean 2, treated KO group (NOR) ([4]; comparison against N_WT-V, groups and doses as E16): 7.300; Summary, WT-V vs. treated KO (Test of daily living) ([6]; doses as E11): ns; Mean Diff., WT-V vs. treated KO (Test of daily living) ([6]; KO mice): 0.1000; Mean 2, treated KO group (Test of daily living) [6, 10]: 4.700; Mean 2, treated KO group (Test of daily living) [6, 11]: 4.700
